Assay results: patent publication US20210341496A1, “Systems and Methods for Detecting or Monitoring Insulin” (The Florida State University Research Foundation, Inc., priority 2020, published 2021)

System: murine islets
Assay: Synchronization of GSIS from grouped islets by periodic CCh pulses
Type: cell-based
Details: 5 islets, constant 11 mM glucose, 30 s every 5 min
Experimental: CCh, an M3R agonist, synchronizes glucose-induced islet activity as measured by synchronized oscillations of [Ca^2+]i levels. Because no recording of insulin release has been reported after delivery of CCh pulses, synchronized hormone secretion had not previously been verified. Using the newly-developed anisotropy method, it was tested whether GSIS from grouped islets can be entrained during periodic application of CCh.
For this experiment, reagent reservoirs connected to inlets 1 and 2 contained 11 mM glucose and 10 μM CCh in 11 mM glucose, respectively. A group of 5 islets were loaded into the islet chamber that had been filled with 11 mM glucose. After sealing the chamber, islets were continuously perfused with constant 11 mM glucose from inlet 1. CCh pulses were generated by switching the flow from inlet 1 to inlet 2. Pulse profiles consisted of 5 pulses (denoted by ‘x’ in FIG. 10A and FIG. 10B) each delivered for 30 s every 5 min. Considering broadening of each pulse (FIG. 3C), islets were exposed to an effective [CCh] of 4.7 μM.
In FIG. 10A and FIG. 10B, the glucose level remained constant at 11 mM. In the islet chamber during each experiment were 5 islets. In FIG. 10A, GSIS was synchronized by a train of 5 CCh pulses. Each 30 second pulse, ‘x’, was delivered every 5 minutes from 5 to 25 minutes. Numbered insulin peaks highlight oscillations likely stimulated by a CCh pulse. […]

Q: With `C[N+](C)(C)CCOC(N)=O` [CCh, carbachol] as the compound, how does the “insulin spikes after CCh pulses, average of final 3 spikes” value (5 pulses of 10 μM CCh (effective 4.7 μM)) read?
A: 78±12 pg min^−1 islet^−1

Q: And the “synchronization of GSIS” value (train of 5 CCh pulses)?
A: synchronized
